According to patent US11814375B2, “Heterocyclic compounds” (Hoffmann-La Roche Inc., priority 2019, dated 2023):
pIC50: −log10 of the molar value.

These compounds were tested against T1, MAGL (Homo sapiens, UniProt Q99685) (assay: 2-AG assay: MAGL inhibitory activity by hydrolysis of 2-arachidonoylglycerol to arachidonic acid, followed by mass spectrometry). Conditions: 8 μM 2-arachidonoylglycerol, 15 min preincubation and 30 min reaction at RT, arachidonic acid/d8-arachidonic acid ratio by MS.
T1 sequence (Q99685 1-303): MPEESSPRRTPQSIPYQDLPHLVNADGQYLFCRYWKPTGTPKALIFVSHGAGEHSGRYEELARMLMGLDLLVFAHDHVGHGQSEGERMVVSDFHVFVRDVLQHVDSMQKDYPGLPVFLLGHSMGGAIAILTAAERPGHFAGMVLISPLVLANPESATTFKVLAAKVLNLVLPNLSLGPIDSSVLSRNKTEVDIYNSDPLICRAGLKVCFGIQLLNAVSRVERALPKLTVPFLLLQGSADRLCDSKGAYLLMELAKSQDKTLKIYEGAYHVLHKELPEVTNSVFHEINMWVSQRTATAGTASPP
Assay type: biochemical
Description: Compounds of formula (I) were profiled for MAGL inhibitory activity by determining the enzymatic activity by following the hydrolysis of the natural substrate 2-arachidonoylglycerol (2-AG) resulting in arachidonic acid, which can be followed by mass spectrometry. This assay is hereinafter abbreviated “2-AG assay”.
The 2-AG assay was carried out in 384 well assay plates (PP, Greiner Cat #784201) in a total volume of 20 μL. Compound dilutions were made in 100% DMSO (VWR Chemicals 23500.297) in a polypropylene plate in 3-fold dilution steps to give a final concentration range in the assay from 12.5 μM to […]. 0.25 μL compound dilutions (100% DMSO) were added to 9 μL MAGL in assay buffer (50 mM TRIS (GIBCO, 15567-027), 1 mM EDTA (Fluka, 03690-100 mL), 0.01% (v/v) Tween. After shaking, the plate was incubated for 15 min at RT. To start the reaction, 10 μL 2-arachidonoylglycerol in assay buffer was added. The final concentrations in the assay was […] and 8 μM 2-arachidonoylglyerol. After shaking and 30 min incubation at RT, the reaction was quenched by the addition of 40 μL of ACN containing 4 μM of d8-arachidonic acid. The amount of arachidonic acid was traced by an online SPE system (Agilent Rapidfire) coupled to a triple quadrupole mass spectrometer (Agilent 6460). A C18 SPE cartridge (G9205A) was used in an ACN/water liquid setup. The mass spectrometer was operated in negative electrospray mode following the mass transitions 303.1→259.1 for arachidonic acid and 311.1→267.0 for d8-arachidonic acid. The activity of the compounds was calculated based on the ratio of intensities [arachidonic acid/d8-arachidonic acid].

First: O=C1CO[C@H]2CCN(C(=O)N3CC(c4ccc(Oc5ccccc5)cc4)C3)C[C@H]2N1 [Example 1, (4aR,8aS)-6-(3-(4-Phenoxyphenyl)azetidine-1-carbonyl)hexahydro-2H-pyrido[4,3-b][1,4]oxazin-3(4H)-one]
Second: O=C1CO[C@H]2CCN(C(=O)N3CC(c4ccc(Oc5cccnc5)cc4)C3)C[C@H]2N1 [Example 10, (+)-(4aR,8aS)-6-[3-[4-(3-Pyridyloxy)phenyl]azetidine-1-carbonyl]-4,4a,5,7,8,8a-hexahydropyrido[4,3-b][1,4]oxazin-3-one]
The pIC50 of the first is 1.06 log units higher: 9.70 for the first, 8.64 for the second.

First: O=C1CO[C@H]2CCN(C(=O)N3CC(c4ccc(Oc5ccccc5Cl)cc4)C3)C[C@H]2N1 [Example 2, (4aR,8aS)-6-[3-[4-(2-Chlorophenoxy)phenyl]azetidine-1-carbonyl]-4,4a,5,7,8,8a-hexahydropyrido[4,3-b][1,4]oxazin-3-one]
Second: O=C1CO[C@H]2CCN(C(=O)N3CC(c4ccc(Oc5ccccc5F)cc4)C3)C[C@H]2N1 [Example 18, (+)-(4aR,8aS)-6-[3-[4-(2-fluorophenoxy)phenyl]azetidine-1-carbonyl]-4,4a,5,7,8,8a-hexahydropyrido[4,3-b][1,4]oxazin-3-one]
The pIC50 of the first is 0.40 log units higher: 10.70 for the first, 10.30 for the second. The first is the more potent here.

Compared with `O=C1CO[C@H]2CCN(C(=O)N3CC(c4ccc(Oc5ncccn5)cc4)C3)C[C@H]2N1` [Example 3, (4aR,8aS)-6-[3-(4-Pyrimidin-2-yloxyphenyl)azetidine-1-carbonyl]-4,4a,5,7,8,8a-hexahydropyrido[4,3-b][1,4]oxazin-3-one], `Cc1ccnc(Oc2ccc(C3CN(C(=O)N4CC[C@@H]5OCC(=O)N[C@@H]5C4)C3)cc2)n1` [Example 5, (+)-(4aR,8aS)-6-[3-[4-(4-Methylpyrimidin-2-yl)oxyphenyl]azetidine-1-carbonyl]-4,4a,5,7,8,8a-hexahydropyrido[4,3-b][1,4]oxazin-3-one] is 0.50 log units higher in pIC50: 7.12 for the first, 7.62 for the second. The second is the more potent here.

Going from `Cc1ncccc1Oc1ccc(C2CN(C(=O)N3CC[C@@H]4OCC(=O)N[C@@H]4C3)C2)cc1` [Example 4, (4aR,8aS)-6-[3-[4-[(2-Methyl-3-pyridyl)oxy]phenyl]azetidine-1-carbonyl]-4,4a,5,7,8,8a-hexahydropyrido[4,3-b][1,4]oxazin-3-one] to `Cc1ccncc1Oc1ccc(C2CN(C(=O)N3CC[C@@H]4OCC(=O)N[C@@H]4C3)C2)cc1` [Example 7, (+)-(4aR,8aS)-6-[3-[4-[(4-Methyl-3-pyridyl)oxy]phenyl]azetidine-1-carbonyl]-4,4a,5,7,8,8a-hexahydropyrido[4,3-b][1,4]oxazin-3-one], the pIC50 rises from 8.60 to 9.30 (0.70 log units). The second is the more potent here.

First: O=C1CO[C@H]2CCN(C(=O)N3CC(c4ccc(Oc5cccnn5)cc4)C3)C[C@H]2N1 [Example 6, (+)-(4aR,8aS)-6-[3-(4-Pyridazin-3-yloxyphenyl)azetidine-1-carbonyl]-4,4a,5,7,8,8a-hexahydropyrido[4,3-b][1,4]oxazin-3-one]
Second: Cc1ccnnc1Oc1ccc(C2CN(C(=O)N3CC[C@@H]4OCC(=O)N[C@@H]4C3)C2)cc1 [Example 11, (+)-(4aR,8aS)-6-[3-[4-(4-Methylpyridazin-3-yl)oxyphenyl]azetidine-1-carbonyl]-4,4a,5,7,8,8a-hexahydropyrido[4,3-b][1,4]oxazin-3-one]
The pIC50 of the first is 0.49 log units lower: 6.88 for the first, 7.37 for the second.

Going from `O=C1CO[C@H]2CCN(C(=O)N3CC(c4ccc(Oc5cncc(F)c5)cc4)C3)C[C@H]2N1` [Example 8, (+)-(4aR,8aS)-6-[3-[4-[(5-Fluoro-3-pyridyl)oxy]phenyl]azetidine-1-carbonyl]-4,4a,5,7,8,8a-hexahydropyrido[4,3-b][1,4]oxazin-3-one] to `O=C1CO[C@H]2CCN(C(=O)N3CC(c4ccc(Oc5cncc(Cl)c5)cc4)C3)C[C@H]2N1` [Example 9, (+)-(4aR,8aS)-6-[3-[4-[(5-Chloro-3-pyridyl)oxy]phenyl]azetidine-1-carbonyl]-4,4a,5,7,8,8a-hexahydropyrido[4,3-b][1,4]oxazin-3-one], the pIC50 rises from 8.37 to 9.05 (0.68 log units). The second is the more potent here.

Going from `O=C1CO[C@H]2CCN(C(=O)N3CC(c4ccc(Oc5ccnnc5Cl)cc4)C3)C[C@H]2N1` [Example 12, (+)-(4aR,8aS)-6-[3-[4-(3-Chloropyridazin-4-yl)oxyphenyl]azetidine-1-carbonyl]-4,4a,5,7,8,8a-hexahydropyrido[4,3-b][1,4]oxazin-3-one] to `O=C1CO[C@H]2CCN(C(=O)N3CC(c4ccc(Oc5ccnc(Cl)n5)cc4)C3)C[C@H]2N1` [Example 24, (+)-(4aR,8aS)-6-[3-[4-(2-Chloropyrimidin-4-yl)oxyphenyl]azetidine-1-carbonyl]-4,4a,5,7,8,8a-hexahydropyrido[4,3-b][1,4]oxazin-3-one], the pIC50 rises from 7.63 to 10.40 (2.77 log units).

Compared with `COc1ccnc(Oc2ccc(C3CN(C(=O)N4CC[C@@H]5OCC(=O)N[C@@H]5C4)C3)cc2)n1` [Example 13, (+)-(4aR,8aS)-6-[3-[4-(4-Methoxypyrimidin-2-yl)oxyphenyl]azetidine-1-carbonyl]-4,4a,5,7,8,8a-hexahydropyrido[4,3-b][1,4]oxazin-3-one], `O=C1CO[C@H]2CCN(C(=O)N3CC(c4ccc(Oc5nccc(C6CC6)n5)cc4)C3)C[C@H]2N1` [Example 25, (+)-(4aR,8aS)-6-[3-[4-(4-Cyclopropylpyrimidin-2-yl)oxyphenyl]azetidine-1-carbonyl]-4,4a,5,7,8,8a-hexahydropyrido[4,3-b][1,4]oxazin-3-one] is 0.48 log units higher in pIC50: 7.90 for the first, 8.38 for the second.

First: O=C1CO[C@H]2CCN(C(=O)N3CC(c4ccc(Oc5nccc(C(F)(F)F)n5)cc4)C3)C[C@H]2N1 [Example 14, (+)-(4aR,8aS)-6-[3-[4-[4-(Trifluoromethyl)pyrimidin-2-yl]oxyphenyl]azetidine-1-carbonyl]-4,4a,5,7,8,8a-hexahydropyrido[4,3-b][1,4]oxazin-3-one]
Second: O=C1CO[C@H]2CCN(C(=O)N3CC(c4ccc(Oc5cccc(C(F)(F)F)c5)cc4)C3)C[C@H]2N1 [Example 22, (+)-(4aR,8aS)-6-[3-[4-[3-(Trifluoromethyl)phenoxy]phenyl]azetidine-1-carbonyl]-4,4a,5,7,8,8a-hexahydropyrido[4,3-b][1,4]oxazin-3-one]
The pIC50 of the first is 2.35 log units lower: 7.87 for the first, 10.22 for the second.

First: O=C1CO[C@H]2CCN(C(=O)N3CC(c4ccc(Oc5cccc(F)c5)cc4)C3)C[C@H]2N1 [Example 15, (+)-(4aR,8aS)-6-[3-[4-(3-Fluorophenoxy)phenyl]azetidine-1-carbonyl]-4,4a,5,7,8,8a-hexahydropyrido[4,3-b][1,4]oxazin-3-one]
Second: O=C1CO[C@H]2CCN(C(=O)N3CC(c4ccc(Oc5cccc(Cl)c5)cc4)C3)C[C@H]2N1 [Example 20, (+)-(4aR,8aS)-6-[3-[4-(3-Chlorophenoxy)phenyl]azetidine-1-carbonyl]-4,4a,5,7,8,8a-hexahydropyrido[4,3-b][1,4]oxazin-3-one]
The pIC50 of the first is 0.26 log units lower: 9.96 for the first, 10.22 for the second. The second is the more potent here.

Compared with `O=C1CO[C@H]2CCN(C(=O)N3CC(c4ccc(Oc5ccc(F)cc5)cc4)C3)C[C@H]2N1` [Example 16, (+)-(4aR,8aS)-6-[3-[4-(4-Fluorophenoxy)phenyl]azetidine-1-carbonyl]-4,4a,5,7,8,8a-hexahydropyrido[4,3-b][1,4]oxazin-3-one], `O=C1CO[C@H]2CCN(C(=O)N3CC(c4ccc(Oc5ccc(Cl)cc5)cc4)C3)C[C@H]2N1` [Example 19, (+)-(4aR,8aS)-6-[3-[4-(4-Chlorophenoxy)phenyl]azetidine-1-carbonyl]-4,4a,5,7,8,8a-hexahydropyrido[4,3-b][1,4]oxazin-3-one] is 0.70 log units higher in pIC50: 10.30 for the first, 11.00 for the second.

Compared with `O=C1CO[C@H]2CCN(C(=O)N3CC(c4ccc(Oc5ccc(F)cc5F)cc4)C3)C[C@H]2N1` [Example 17, (+)-(4aR,8aS)-6-[3-[4-(2,4-Difluorophenoxy)phenyl]azetidine-1-carbonyl]-4,4a,5,7,8,8a-hexahydropyrido[4,3-b][1,4]oxazin-3-one], `Cc1ccccc1Oc1ccc(C2CN(C(=O)N3CC[C@@H]4OCC(=O)N[C@@H]4C3)C2)cc1` [Example 21, (+)-(4aR,8aS)-6-[3-[4-(2-Methylphenoxy)phenyl]azetidine-1-carbonyl]-4,4a,5,7,8,8a-hexahydropyrido[4,3-b][1,4]oxazin-3-one] is 0.52 log units higher in pIC50: 10.00 for the first, 10.52 for the second.

`N#Cc1ccccc1Oc1ccc(C2CN(C(=O)N3CC[C@@H]4OCC(=O)N[C@@H]4C3)C2)cc1` [Example 23, (+)-2-[4-[1-[(4aR,8aS)-3-Oxo-4,4a,5,7,8,8a-hexahydropyrido[4,3-b][1,4]oxazine-6-carbonyl]azetidin-3-yl]phenoxy]benzonitrile] showed a pIC50 of 9.70.
